Experimental findings from paper PMC5084075 (ACS Central Science, 2016) are described below.

Data set [1] relates to T1, Plasmodium falciparum 3D7.
T1 construct: 3D7
Nature of the data set: microbe, parasite or virus in culture. Particulars: Avery assay, read-out: 3D7 / IC50nM. Also on record: species or system P. falciparum blood stage culture; whole-cell asexual blood stage P. falciparum growth inhibition. As for the experimental part:
(§1) To confirm the promise of the two starting points OSM-S-5 and -6, they were evaluated against 3D7 (drug-sensitive) and K1 (chloroquine resistant) strains of Plasmodium falciparum in a whole cell assay and against HEK-293 cells as a cytotoxicity marker (Table SB1, Biological Protocols; tables with the prefix “SB” may be found in the Supporting Information). Biological data may be browsed in a static data set taken as a snapshot for this paper (Data Sets S1 (Excel), S2 (SDF)), online in a database constructed through periodic batch uploads,[68] or in a “living database” to which may be added future data;[69] the latter may be visualized in a web browser[70] using an open source system that was recently deployed in the Wikipedia Chemical Structure Explorer,[71] or the data may be downloaded and visualized offline with proprietary (Figure S4)[72] or open source (Figure S5)[73] tools). The evaluation was performed in three different institutions using different assays and widely employed controls; controls are important to assess reproducibility and interassay variability[74] but also to minimize possible bias in evaluating compounds where there are pre-existing data from other researchers already in the public domain (Figure S6).[75]

For data set [2], the system named is T2, Plasmodium falciparum Pfal (K1).
T2 construct: K1
The data set can be described thus: microbe, parasite or virus in culture. The arrangement: species or system erythrocytes; P. falciparum asexual blood-stage whole-cell growth inhibition, IC50. Particulars: K1, Erythrocyte. How it is done: as §1

Data set [3] deals with T3, Plasmodium falciparum K1 (chloroquine resistant).
T3 construct: K1
Nature of the data set: microbe, parasite or virus in culture. Also on record: species or system P. falciparum blood stage culture; whole-cell asexual blood stage P. falciparum growth inhibition. As for the experimental part:
as §1

Data set [4] concerns Plasmodium falciparum Pfal (strain not named in column head). The data set can be described thus: microbe, parasite or virus in culture. Also on record: species or system P. falciparum blood stage culture; whole-cell asexual blood stage P. falciparum growth inhibition. As for the experimental part: as §1
The subject of data set [5] is T4, Plasmodium falciparum Pfal (3D7).
T4 construct: 3D7
Nature of the data set: microbe, parasite or virus in culture. Also on record: species or system erythrocytes; P. falciparum asexual blood-stage whole-cell growth inhibition, IC50. To be noted: 3D7, Erythrocyte, lab named in column head. As for the experimental part: as §1

A further data set deals with T5, PfDHODH (Plasmodium falciparum, UniProt Q08210).
T5 sequence (Q08210 1-569): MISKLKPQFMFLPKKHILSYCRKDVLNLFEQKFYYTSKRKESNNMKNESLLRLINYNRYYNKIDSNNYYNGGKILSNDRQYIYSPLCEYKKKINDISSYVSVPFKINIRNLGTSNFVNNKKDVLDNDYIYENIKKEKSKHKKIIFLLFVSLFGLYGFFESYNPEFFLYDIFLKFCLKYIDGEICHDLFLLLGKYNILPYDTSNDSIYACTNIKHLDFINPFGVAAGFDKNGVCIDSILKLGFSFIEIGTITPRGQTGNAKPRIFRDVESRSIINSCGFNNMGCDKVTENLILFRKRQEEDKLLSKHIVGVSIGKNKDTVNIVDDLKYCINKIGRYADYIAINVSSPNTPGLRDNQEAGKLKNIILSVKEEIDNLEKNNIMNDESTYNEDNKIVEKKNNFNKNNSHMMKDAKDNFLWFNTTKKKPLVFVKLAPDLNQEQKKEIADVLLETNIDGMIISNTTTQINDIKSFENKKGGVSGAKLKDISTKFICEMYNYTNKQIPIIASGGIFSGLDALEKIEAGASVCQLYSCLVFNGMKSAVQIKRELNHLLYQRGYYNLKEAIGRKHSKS
Nature of the data set: biochemical. Also on record: PfDHODH enzyme inhibition IC50. To be noted: read-out: DHODH. From the text: The potency of the near neighbor set led to an in silico target prediction study being performed on OSM-S-39 (Text S11). The method employed a naive Bayes statistical model identifying molecular structural features of small molecules with protein targets, using the ChEMBL database. Similar statistical approaches based on known activities of compounds have been successfully applied to identify targets of antitubercular compounds.[112]−[114] A total of 1,287 proteins were included for which at least 50 active compounds were known with activities <10 μM, with the other compounds in the database comprising the inactives. After the OSM compounds were scored against each target, the scores obtained were standardized by comparison with scores obtained through comparison with a random set of >10K compounds. The prediction list was culled for proteins relevant to malaria (3D7 proteome), and the analysis gave as the most likely candidate targets, in order of significance, carboxy-terminal domain RNA polymerase II polypeptide A small phosphatase 1 (Q8I3U9), dihydroorotate dehydrogenase (DHODH, Q08210), SUMO-activating enzyme subunit 2 (Q8I553) and 1 (Q8IHS2), and cyclin-dependent kinase 1 (P61075). […] A line of inquiry remaining open is the equivalent assays against the other targets identified in the in silico prediction.

Data set [6] is described as follows: in vitro. Also on record: metabolic stability in human liver microsomes, LC-MS, NADPH, 0.4 mg/mL protein. Particulars: liver microsomes, human liver microsomes. How it is done:
(§2) The two original GSK hits (OSM-S-5 and -6) and six NN compounds were evaluated for their kinetic solubility in phosphate buffer and their metabolic stability in human liver microsomes (Table SB5, Data Sets S20 and S21).
For orientation: Liver microsomes are vesicles of endoplasmic reticulum, rich in cytochrome P450 enzymes.

Data set [7] can be described thus: in vitro. The arrangement: microsomal stability with NADPH, LC-MS, half-life and CLint. To be noted: human, liver microsomes, HLM. How it is done: as §2
For a further data set, the system named is HEK293. Nature of the data set: cells. To be noted: Homo sapiens, cytotoxicity. Also on record: cytotoxicity counter-screen on HEK293 cells. As for the experimental part:
as §1

Where [8] appears, read: Avery assay, read-out: K1 / IC50nM.
The mark [9] stands for this setting: Guy assay, read-out: Pfal (K1) IC50 (Guy).

Read-outs that look alike come from different tables or passages of the source.

On to `C[C@@H]1CC[C@H]2[C@@H](C)C(=O)O[C@@H]3O[C@@]4(C)CC[C@@H]1[C@]32OO4` [Artemisinin], for which the IC50 amounted to 6 nM in data set [1] and 0.61 nM in [2] (read-out: K1 / IC50nM).
Take `CCN(CC)CCCC(C)Nc1ccnc2cc(Cl)ccc12` (centres unmarked) [Chloroquine]: the IC50 in [3] (setting [8]) turned out to be 266 nM; in [1] it was 18.7 nM.
Consider `Cc1cc(/C=C2\SC(=Nc3ccccc3)NC2=O)c(C)n1-c1ccc(S(N)(=O)=O)cc1` [OSM-A-1], for which the IC50 was 4380 nM in [3] (setting [9]); 3.05 µM in data set [4] (Guy assay); 4380 nM in data set [2] (lab named in column head, read-out: Pfal (K1) IC50 (Guy)); 3.05 µM in data set [5] (read-out: Pfal IC50 (Guy)).
Consider `Cc1cc(/C=C2\S/C(=N\c3ccccc3)NC2=O)c(C)n1-c1ccc(C#N)cc1` [OSM-A-2], for which the IC50 in data set [3] (setting [9]) is 1830 nM; in data set [4] (Guy assay), 0.574 µM.
Consider `COc1cccc(-n2c(C)cc(/C=C3\S/C(=N\c4ccccc4)NC3=O)c2C)c1` [OSM-A-3], for which the IC50 in data set [3] (setting [9]) is 140 nM; in data set [4] (Guy assay), 0.098 µM.
The corresponding values for `Cc1cc(/C=C2\S/C(=N\c3ccccc3)NC2=O)c(C)n1-c1ccc(I)cc1` [OSM-A-4] are 3160 nM and 1.75 µM.
Consider `Cc1cc(S(=O)(=O)N(C)CC(N)=O)c(C)n1-c1ccc(F)cc1` [OSM-E-1], for which the IC50 in data set [4] (Dundee assay) was over 50 µM.
On the same count and under the same terms, under `Cc1cc(S(=O)(=O)NCC(N)=O)c(C)n1-c1ccc(F)cc1` [OSM-E-2] stands over 50 µM.
The same measure, in the same setting: under `Cc1c(S(=O)(=O)N(C)CC(N)=O)c(S(=O)(=O)N(C)CC(N)=O)c(C)n1-c1ccc(F)cc1` [OSM-E-3] stands over 50 µM; under `O=C(CBr)OCc1cn(-c2ccc(F)cc2)nn1` [OSM-E-4], over 50 µM.
Same read-out and setting: under `CCOC(=O)COCc1cn(-c2ccc(F)cc2)nn1` [OSM-E-5] stands over 50 µM.
In data set [4] (Dundee assay), `COC(=O)COCc1cn(-c2ccc(F)cc2)nn1` [OSM-E-6] had an IC50 of over 50 µM.
Still for that read-out and setting: in the case of `O=C(COCc1cn(-c2ccc(F)cc2)nn1)OCc1cn(-c2ccc(F)cc2)nn1` [OSM-E-7] it was over 50 µM.
On to `NC(=O)COCc1cn(-c2ccc(F)cc2)nn1` [OSM-E-8], for which, in data set [4] (Dundee assay), the IC50 is over 50 µM.
As to `Cc1cc(/C=C2\S/C(=N\c3ccccc3)N(c3ccccc3)C2=O)c(C)n1-c1cccc(F)c1` [OSM-L-1], the IC50 is over 5000 nM in [3] (Batra assay, read-out: Pfal (K1) IC50 (Batra)) and 3.2 µM in data set [4] (Batra assay).
For the compound `Cc1cc(/C=C2\SC(=Nc3ccccc3)N(c3ccccc3)C2=O)c(C)n1-c1cccc(F)c1` [OSM-L-1], the IC50 in [2] (lab named in column head, read-out: Pfal (K1) IC50 (Batra)) was over 5000 nM; in data set [5] (read-out: Pfal IC50 (Batra)), 3.2 µM.
Take `Cc1cc(C=O)c(C)n1-c1ccc(F)cc1` [OSM-S-2]: the IC50 on PfDHODH is over 50 µM.
Still for that read-out and setting: under `CCOC(=O)c1cc(C)n(-c2ccc(F)cc2)c1C` [OSM-S-3] stands over 50 µM; under `Cc1cc(C(=O)O)c(C)n1-c1ccc(F)cc1` [OSM-S-4], over 50 µM.
With `Cc1cc(C(=O)OCC(=O)Nc2c(C)n(C)n(-c3ccccc3)c2=O)c(C)n1-c1ccc(F)cc1` [OSM-S-6], the IC50 at PfDHODH is over 50 µM.
Same read-out and setting: in the case of `Cc1cc(C(=O)N(C(=O)NC2CCCCC2)C2CCCCC2)c(C)n1-c1ccc(F)cc1` [OSM-S-7] it was over 50 µM; in that of `Cc1cc(C(=O)Nc2c(C)n(C)n(-c3ccccc3)c2=O)c(C)n1-c1ccc(F)cc1` [OSM-S-8], over 50 µM.
`Cc1cc(/C=C2\S/C(=N\c3ccccc3)NC2=O)c(C)n1-c1ccc(F)cc1` [OSM-S-10]: the microsomal CLint in the data set “in vitro [6]” (read-out: CLint HLM (Monash)) and in “in vitro [7]” (read-out: CLint HLM (Monash)) was 17 µL/min/mg each time. Further, the half-life in “in vitro [6]” (read-out: t1/2 HLM (Monash)) and in “in vitro [7]” (read-out: t1/2 HLM (Monash)) was 1.72 h in each case.
As to `Cc1c(NC(=O)CNC(=O)c2ccccc2)c(=O)n(-c2ccccc2)n1C` [OSM-S-16], the IC50 on PfDHODH is over 50 µM.
As for `Cc1cc(C(=O)NCC(N)=O)c(C)n1-c1ccc(F)cc1` [OSM-S-19], at PfDHODH, the IC50 is over 50 µM.
The same measure, in the same setting: in the case of `Cc1cc(C(=O)NCC(=O)Nc2c(C)n(C)n(-c3ccccc3)c2=O)c(C)n1-c1ccc(F)cc1` [OSM-S-21] it was over 50 µM; in that of `Cc1cc(/C=C2\S/C(=N\c3ccccc3)N(CC#N)C2=O)c(C)n1-c1ccc(C(F)(F)F)cc1` [OSM-S-42], over 50 µM; in that of `Cc1cc(/C=C2\SC(N(CC#N)c3ccccc3)=NC2=O)c(C)n1-c1ccc(C(F)(F)F)cc1` [OSM-S-43], over 50 µM.
With `CC(=O)N(C1=NC(=O)/C(=C/c2cc(C)n(-c3ccc(C(F)(F)F)cc3)c2C)S1)c1ccccc1` [OSM-S-45], the IC50 at PfDHODH was over 50 µM.
On the same count and under the same terms, under `CCOC(=O)c1ccc(-n2c(C)cc(/C=C3\S/C(=N/c4ccccc4)NC3=O)c2C)cc1` [OSM-S-48] stands over 50 µM.
On to `CC(=O)N(C1=NC(=O)/C(=C/c2cc(C)n(-c3ccccc3)c2C)S1)c1ccccc1` [OSM-S-49], for which the IC50 on PfDHODH was over 50 µM.
Same read-out and setting: in the case of `CC(=O)N(C1=NC(=O)/C(=C/c2cc(C)n(-c3ccc(C)cc3)c2C)S1)c1ccccc1` [OSM-S-50] it was over 50 µM.
The same measure, in the same setting: under `Cc1cc(/C=C2\S/C(=N\c3ccccc3)NC2=O)c(C)n1-c1ccccn1` [OSM-S-51] stands over 50 µM; under `Cc1cc(/C=C2\S/C(=N\c3ccccc3)N(c3ccccc3)C2=O)c(C)n1-c1ccc(C(F)(F)F)cc1` [OSM-S-52], over 50 µM.
Consider `Cc1cc(/C=C2\S/C(=N\c3ccccc3)N(C3CCCC3)C2=O)c(C)n1-c1ccc(C(F)(F)F)cc1` [OSM-S-54], for which the IC50 at PfDHODH was over 50 µM.
Same read-out and setting: under `O=C1N=C(Nc2ccccc2)S/C1=C\c1ccccc1` [OSM-S-55] stands over 50 µM.
As a reminder, the inhibition is the relative decrease from the control value, in per cent. `Cc1cc(/C=C2\S/C(=N\c3ccccc3)NC2=O)c(C)[nH]1` [OSM-S-108]: the inhibition at 40 µM in the data set on HEK293 is 44%.
The same measure, in the same setting: in the case of `Cc1cc(/C=C2\S/C(=N\c3cccc(O)c3)NC2=O)c(C)n1-c1ccc([N+](=O)[O-])cc1` [OSM-S-110] it was 26%; in that of `COc1ccc(-n2c(C)cc(/C=C3\S/C(=N\c4cccc(O)c4)NC3=O)c2C)cc1` [OSM-S-112], 38%; in that of `Cc1cc(/C=C2\S/C(=N\c3cccc(O)c3)NC2=O)c(C)n1-c1ccccc1` [OSM-S-114], 42%.
On the same count and under the same terms, in the case of `Cc1cc(/C=C2\S/C(=N\c3ccc(O)cc3)NC2=O)c(C)n1-c1ccccc1` [OSM-S-115] it was 35%.
With `COc1cc(C)c2c(Oc3cccc(C(F)(F)F)c3)c(OC)cc(NC(C)CCCN)c2n1` (centres unmarked) [Tafenoquine], the IC50 in [3] (setting [8]) and in data set [1] was 451 nM throughout.
